Data reported in US9468670B2, “Melatonin-based treatment and diagnosis of bile duct disease” (Texas A&M University System, priority 2011, dated 2016).

Assays:
[1] = tested on: large mouse cholangiocyte lines; test: cAMP levels (RIA) in large mouse cholangiocyte lines; assay type: cell-based; details: melatonin 10^−11 M for 5 minutes
Source text: The expression of MT1 and MT2 receptors in immortalized large cholangiocytes was first evaluated by immunofluorescence (Francis et al., 2008). Images were visualized using an Olympus IX-71 confocal microscope. For all immunoreactions, negative controls (with normal serum from the same species substituted for the primary antibody) were included. It was next evaluated by commercially available radioimmunoassay (RIA) kits ([…] et al., 1998; Kato et al., 1992; […] et al., 1999; […] et al., 2004) for cAMP levels ([…] et al., 1998; Kato et al., 1992; […] Shiu et al., 2010). […] […] et al., 1992; Ramirez-Rodriguez et al., 2009; […], 1999). […] Shiu et al., 2010) before evaluating by immunoblots (Francis et al., 2008) the expression of PCNA and the phosphorylation of PKA and EKR1/2.

[2] = Liver and body weight of nude mice bearing Mz-ChA-1 tumors; assay type: in vivo, nude (nu/nu) mice; details: 4 mg/kg BW IP three times a week
Protocol: Experiments were performed to evaluate the in vivo effect of melatonin on the growth of cholangiocarcinoma cell lines implanted in the flanks of athymic mice (Francis H et al., 2009). Male BALB/c 6-wk-old nude (nu/nu) mice (Taconic Farms. Hudson, N.Y.) were kept in a temperature-controlled environment (20-22° C.) with 12-hr light-dark cycles, fed ad libitum standard mouse chow, and with free access to drinking water. Mz-ChA-1 cells (5×10^6) were suspended in 0.2 ml of extracellular matrix gel and injected subcutaneously in the rear flanks of the nude mice. After the establishment of the tumor (one week with a tumor size of ˜5 mm^3) mice (n=4) were treated with vehicle (5% ethanol in water) or melatonin (4 mg/kg BW, dissolved in 5% aqueous ethanol solution) (Sewerynek et al., 1995) by IP injections three times a week. Tumor variables were measured three times a week by an electronic caliper, and volume was determined as follows: tumor volume (mm^3)=0.5×[length (mm)×width (mm)×height (mm)]. The measurements started from the first week when the tumor mass was established. After 43 days of treatment, were anesthetized with sodium pentobarbital (50 mg/kg BW IP) and tumor tissues were harvested from the flanks of the mice. Heart, liver, and kidney tissues were collected for evaluation of organ damage by H&E staining of paraffin-embedded sections ([…]). All experiments were conducted under the guidelines of the Scott & White and Texas A&M HSC IACUC Committee. Tumors were allowed to grow until maximum allowable tumor burden was reached as set forth by the Scott & White and Texas A&M HSC IACUC tumor burden policy. Tumor tissues were fixed for 4 hr in 10% buffered formalin and embedded in low-temperature fusion paraffin. […] Semiquantitative analysis for these markers was evaluated by image-analysis software, Image-Pro Plus (Media Cybernetics, Silver Springs, Md.) (Lejeune et al., 2008). Three randomly chosen fields were calculated for statistics.

CCA = test: Sensitization of CCA to 5-fluorouracil and gemcitabine cytotoxicity in vitro; assay type: cell-based
AANAT = AANAT morpholino in normal rats with or without CCl4 (liver sections, qPCR, immunoblots); assay type: in vivo, rat
Protocol: Methods: Normal rats were treated for 1 wk with AANAT morpholino (to reduce the biliary expression of AANAT) or scrambled morpholino (1 mg/kg BW/day) by a portal vein catheter before receiving a single dose of mineral oil or CCl4 (0.4 ml by gavage 1:1 in mineral oil/100 gm BW). Two days later, in liver sections the following was evaluated: (i) the hepatic expression of AANAT; and (ii) the percentage of TUNEL-positive cholangiocytes, and IBDM. In total liver tissue, the quantitative expression of AANAT, PCNA, Bax and Bcl-2 was studied by qPCR and immunoblots. In mouse cholangiocyte lines (NMC) stably overexpressing AANAT the expression of AANAT and CLOCK genes, melatonin secretion and biliary growth were studied after 48 hr incubation.

[3] = rat, in vivo, 1 mg/kg/day
Protocol: In separate experiments, normal rats treated with Vivo-Morpholino sequences of AANAT (5′-[…] (SEQ ID NO:1), to reduce the biliary expression of AANAT) or Morpholino mismatched (5′-[…] (SEQ ID NO:2)) (Gene Tools LCC) (1 mg/Kg BW/day) for 1 week via an implanted portal vein catheter. Serum, liver tissue, cholangiocytes, kidney, spleen, small intestine, stomach and heart were collected. Since our goal was to knock-down AANAT expression in the liver without inhibiting AANAT expression in other organs, we used a lower dose (1 mg/Kg/day) of Vivo-Morpholino than that described in the original study (3.0 mg/kg/day (Arora et al., 2002). This approach minimizes the amount of Vivo-Morpholino that circulates outside of the liver after slow infusion into the portal vein. See below for the surgical procedure for the implantation of the portal vein catheter by which AANAT Vivo-Morpholino or Morpholino mismatched was administered.
Biliary proliferation was determined by measurement of the percentage of PCNA-positive cholangiocytes by immunohistochemistry, and intrahepatic bile duct mass (IBDM) by immunohistochemistry for CK-19 (Mancinelli et al., 2010). Biliary apoptosis was evaluated by semiquantitative terminal deoxynucleotidyltransferase biotin-dUTP nick-end labeling (TUNEL) kit (Chemicon International, Inc., Temecula, Calif.) (Mancinelli et al., 2010). IBDM was determined as the area occupied by CK-19 positive-bile duct/total area×100 (Mancinelli et al., 2010). The morphological changes/damage in liver, spleen, kidney, heart, stomach, and small intestine were evaluated from AANAT Vivo-Morpholino- or mismatch-treated rats by H&E staining. The serum levels of the transaminases, glutamate pyruvate transaminases (SGPT) and glutamic oxaloacetic transaminase (SGOT), alkaline phosphatase (ALP) and total bilirubin were evaluated using a Dimension RxL Max Integrated Chemistry system (Dade Behring Inc., Deerfield Ill.), Chemistry Department, Scott & White.

[4] = normal rats vs. scrambled morpholino

| Compound | cAMP levels [1] | Body weight [2] [gm] | Liver to body [2] | Liver weight [2] [gm] | Sensitization of CCA to the cytotoxic effects of 5-fluorouracil (5-FU) (CCA) [fold] | Sensitization of CCA to the cytotoxic effects of gemcitabine (CCA) [fold] | AANAT expression in liver tissue (AANAT; [4]) | PCNA expression in liver tissue (AANAT; [4]) | IBDM (AANAT; normal rats, 1 mg/kg BW/day for 1 wk by portal vein catheter, vs. controls) | Biliary apoptosis in response to CCl4 (AANAT; rats, 1 mg/kg BW/day for 1 wk then single dose of CCl4) | ALP [3] [Units/L] | SGOT [3] [Units/L] | SGPT [3] [Units/L] | Total bilirubin [3] [mg/L] |
| --- | --- | --- | --- | --- | --- | --- | --- | --- | --- | --- | --- | --- | --- | --- |
| COc1ccc2[nH]cc(CCNC(C)=O)c2c1 [melatonin] | decreased | 35.25 ± 0.73 | 8.01% ± 0.21 | 2.82 ± 0.13 | ~2 | ~2 |  |  |  |  |  |  |  |  |
| AANAT Vivo-Morpholino: Vivo-Morpholino sequence of AANAT 5′-GTTCCCCAGCTTTGGAAGTGGTCCC (SEQ ID NO:1), to reduce the biliary expression of AANAT (all phosphorodiamidate morpholino (PMO); Vivo-Morpholino delivery moiety attached, position not given here, further chemistry not fully specified) |  |  |  |  |  |  | decreased | increased | enhanced | absence | 230.2 ± 5.2 | 148.5 ± 22.5 | 72.25 ± 0.2 | <0.1 |
